The source of these data is patent US20250314644A1, “METHODS COMPRISING DETECTION OF ADP-HEPTOSE” (CHILDREN'S HOSPITAL MEDICAL CENTER, priority 2023, published 2025).

Common to all, as to type: in vivo, mouse
Assay [1] relates to Dnmt3a^−/− HSCs. The experiment in a line: DSS gut injury in low-dose irradiated chimeric mice, with or without antibiotics pre-treatment. The text has this:
To model pre-leukemic clonal hematopoiesis, chimeric mice were generated as aas follows. Briefly, mixture of 1×10^6 whole bone marrow cells (WBM) were obtained from Poly (I:C) treated wild-type (Dnmt3a^+/+; MxCre^+, called Dnmt3a^WT) or mutant mice (Dnmt3a^f/f; MxCre^+, called Dnmt3a^KO) or double mutant mice (Dnmt3a^f/f; MxCre^+; Alpk1^KO, called Dnmt3a^KO; Alpk1^KO) (CD45.2^+), and transplanted into low-dose (2.5 Gy) irradiated recipient mice (CD45.1^+; 6-10 weeks of age). 8 weeks post-transplant, chimeric mice were treated with either water (H2O) or DSS (2.5%) for 1 week, and allowed to recover for 1 more week on water after which flow cytometry was performed on BM. In separate experiment, chimeric mice were pre-treated with broad spectrum antibiotics (ABX) for 4 weeks, and then subjected to DSS for 1 week after which flow cytometry performed on BM. In a separate set of experiment, chimeric mice were treated with either H2O or ADP-heptose (0.5 mg/kg) for 2 weeks, and flow cytometry performed after 2 more weeks on BM. […]
Mice were treated with 2.5% DSS (wt/vol) (MW: 36,000-50,000 Da, Cat No. 216011090, MP Biomedicals) in autoclaved drinking water to induce gut injury-associated colitis as mentioned before. […] Mice were monitored daily for weight loss, stool consistency, and the presence of frank blood in the stool. […]

Assay [2] is described as follows: Quantification of bacterial DNA (16S) in blood by real-time PCR. Particulars: DSS-induced intestinal barrier dysfunction in mice. An excerpt: The previously described protocol to examine bacterial translocation into blood was used. (Luo, Z., et al. CRIg(+) Macrophages Prevent Gut Microbial DNA-Containing Extracellular Vesicle-Induced Tissue Inflammation and Insulin Resistance. Gastroenterology 160, 863-874 (2021); Tabuchi, Y., et al. Oral dextran sulfate sodium administration induces peripheral spondyloarthritis features in SKG mice accompanied by intestinal bacterial translocation and systemic Th1 and Th17 cell activation. Arthritis Res Ther 24, 176 (2022)) Whole blood was collected by cheek bleeding in sterile BD Microtainer Capillary Blood Collector and Microgard Closure tubes (Cat No. 13-680-62, Fisher Scientific) on ice from each mouse using Goldenrod Animal Lancets 4 mm (Cat No. NC9922361, Braintree Scientific), and genomic DNA extracted using DNeasy Blood & Tissue Kit (Cat No. 69504, Qiagen). qPCR was performed using Femto Bacterial DNA Quantification Kit (Cat. No. E2006, Zymo Research) according to the manufacturers' instructions. Samples with a Ct value more than 35 cycles or undetectable were counted as 0 μg/ml.

Assay [3] can be described thus: UHPLC-MS/MS measurement of ADP-heptose in plasma and BM. The settings on record: DSS-induced intestinal barrier dysfunction in mice. Here is the method:
To measure ADP-heptose, lysates were prepared as described previously. (Gaudet, R. G., et al. INNATE IMMUNITY. Cytosolic detection of the bacterial metabolite HBP activates TIFA-dependent innate immunity. Science 348, 1251-1255 (2015).) Briefly, bacterial culture suspensions of various mouse tissues and human plasma samples were first spun at 4000 g for 5 minutes. Next, pellets were suspended in 1 ml of sterile water. Bacterial cells were then lysed by heating at 95° C. for 15 minutes. Next, lysates were centrifuged at 4000 g for 3 minutes and supernatants filtered through a 0.20 μm syringe filter using 1 ml syringe and needle. Finally, lysates were stored at −80° C. until further processing for Mass Spectrometry. Following a previously established protocol, lysates were prepared. (Pfannkuch, L., et al. ADP heptose, a novel pathogen-associated molecular pattern identified in Helicobacter pylori. FASEB J 33, 9087-9099 (2019).) Briefly, 500 μl of the cleared bacterial lysate was thawed from −80° C. and extracted by addition of 1 ml chloroform/methanol (v:v 2:1) and vortexed and centrifuged (5 min, 10,000 g). […]
The concentration of ADP-heptose was determined using an ultrahigh-performance liquid chromatography-electrospray ionization-mass spectrometry (UHPLC-ESI-MS/MS) method by modifying our previously described protocol. […]

As to dextran sulfate sodium [DSS], the “expansion of Dnmt3a^−/− HSCs in the BM” value in assay [1] is “significant expansion”. Also, in assay [2], the “copies of 16S rRNA in the blood” value is given as “increased copies”. Moreover, the “ADP-heptose in BM and PB plasma by mass spectrometry” value in assay [3] is “circulating ADP-heptose in the BM and PB plasma”.
